Reference: patent publication US20250320190A1, “Novel Inhibitors of Leucine Carboxyl Methyltransferase-1 (LCMT-1) and Methods of Use Thereof” (Temple University-Of The Commonwealth System of Higher …, priority 2024, published 2025)
Read-outs that look alike come from different tables or passages of the source.

What was measured:
[1] = tested on: Rosi cells; assay: Annexin V assay; assay type: cell-based, human; details: 5-20 μM, 48 hours
Method: (§1) MCF7, MDA-MB-231 and Rosi cells were treated with LB-100 and Compound 2 at 5-20 μM concentrations. After 48 hours, cells were lifted with Accutase and washed twice with PBS (pH 7.4) with 10% FBS. Cells were resuspended in annexin V binding buffer (10 mM HEPES (pH 7.4), 140 mM NaCl and 2.5 mM CaCl2)) and labeled with FITC-anti-Annexin V and 7-AAD (Biolegend, FITC Annexin V Apoptosis Detection Kit with 7-AAD, catalog #640922). Cell surface annexin V expression was assessed with flow cytometry.

[2] = tested on: MDA-MB-231 cells; assay: Annexin V assay; assay type: cell-based, human; details: 5-20 μM, 48 hours
Method: as §1

[3] = tested on: MCF7 cells; assay: Annexin V assay; assay type: cell-based, human; details: 5-20 μM, 48 hours
Method: as §1

[4] = tested on: Jurkat cells; assay: Radiosensitization assay (Ghost Dye 710 flow cytometry); assay type: cell-based, human; details: 10 Grays
Method: (§2) Jurkat and THP-1 cells were seeded in 6-well plates as described. After 24 hours LCMT-li was added at various concentrations as described. After 3 hours, cells were irradiated at 10 Grays. After 24 hours, cell viability was assessed with Ghost Dye™ 710 staining and flow cytometry as described.

[5] = tested on: THP-1 cells; assay: as above; assay type: cell-based, human; details: 10 Grays
Method: as §2

[6] = Liver microsomal stability; assay type: in vitro ADME
From the text: There is no cause for concern at this stage since there are multiple strategies and reagents for enhancing aqueous solubility for animal in vivo studies (Savjani, K. T., A. K. Gajjar and J. K. Savjani, 2012, ISRN Pharm 2012: 195727.). […] While target tissue exposure is dependent on free, unbound fractions in the plasma, plasma protein binding can protect compounds from hepatic metabolism. Thus, in vivo metabolism and excretion are often determined by a balance between these two properties. In vivo half-life is a complicated property impacted upon by multiple factors and is difficult to predict. […] While these numbers are somewhat low for a drug candidate, they are acceptable for proof of concept tool molecules which can be given multiple times per day and at higher doses to saturate metabolism.

[7] = tested on: MDA-MB-231 cells; assay: Western blots; assay type: cell-based, human; details: 20 μM
Method: (§3) MCF7, MDA-MB-231 and Rosi cells were treated with Compound 1 or Compound 2 at a concentration of 20 μM in complete medium, and lysates were harvested after 2, 4, 6, 8 and 12 hours in radioimmunoprecipitation assay buffer containing protease inhibitors (Boster Bio, Pleasanton, California, catalog #AR1182-1) and phosphatase inhibitors (Santa Cruz Biotechnology catalog #sc-45044 and #sc-45045). Protein concentrations were measured with a bicinchoninic acid assay (G-Biosciences, Saint Louis, Missouri). Fifty micrograms of each lysate were used for bis-tris polyacrylamide gel electrophoresis. Resolved lysates were transferred to nitrocellulose membranes. Membranes were blocked with TBS with 5% bovine serum albumin before incubation with primary antibodies.
(§4) Antibodies obtained from Cell Signaling Technology (Danvers Massachusetts) were, anti-PP2Ac (catalog #2038, 1:1,000 dilution), anti-phospho-adenosine monophosphate-activated protein kinase (pAMPKα2 threonine 172, catalog #2535, 1:1,000 dilution). Antibodies obtained from Proteintech (Rosemont, Illinois) include anti-phospho-receptor-interacting serine/threonine protein kinase-1 antibodies (pRIPK1 serine 161 (catalog #66854-1-Ig, 1:1,000 dilution) and pRIPK1 serine 166 (catalog #28252-1-AP, 1:10,000 dilution), anti-mixed lineage kinase domain like pseudokinase (MLKL, catalog #66675-1-Ig, 1:5,000 dilution), anti-AMPKα2, anti-phospho-acetyl-coenzyme A carboxylase (pACC1 serine 79, catalog #29119-1-AP, 1:1,000 dilution), anti-ACC1 (catalog #21923-1-AP, 1:2,000 dilution) and anti-β-actin (catalog #66009-1-Ig, 1:50,000 dilution). The anti-RIPKI antibody was obtained from AbClonal (Woburn, Massachusetts, catalog #A7414, 1:750 dilution). The anti-phospho-MLKL antibody was obtained from R&D Systems (Minneapolis, Minnesota, 1:1,000 dilution). The LCMT-1 antibody was obtained from Origene (Rockville, Maryland, catalog #TA503127S, 1:2,000 dilution). Appropriate IR-dye secondary antibodies were used (Alexa Fluor® 790-conjugated anti-mouse (catalog #115-655-146, 1:50,000 dilution), Alexa Fluor® 680-conjugated anti-mouse (catalog #115-625-146, 1:50,000 dilution), and Alexa Fluor® 680-conjugated anti-rabbit (catalog #115-625-144, 1:50,000 dilution) were obtained from Jackson ImmunoResearch Laboratories (West Grove, Pennsylvania). Band densities were normalized to β-actin, the endogenous control. At least five replicates were used for statistical analyses.

[8] = tested on: MCF7 cells; assay: Western blots; assay type: cell-based, human; details: 20 μM
Method: as §3, §4

[9] = tested on: Jurkat cells; assay: Cytotoxicity assay (Ghost Dye 710 flow cytometry); assay type: cell-based; details: Homo sapiens, 48 hours
Method: (§5) Jurkat and THP-1 cells were seeded in 6-well plates at a density of 2.5×10^5 cells/mL. After 24 hours LCMT-li was added at various concentrations. After 48 hours, cells were pelleted and washed twice with ice-cold phosphate-buffered saline (PBS). Cells were stained with Ghost Dye™ 710 (Cytek®, Bethesda, Maryland) viability dye, 0.1 μL/mL in PBS on ice in the dark for 30 minutes. Cells were pelleted and washed twice with ice-cold PBS with 10% FBS. Cells were pelleted and fixed with 4% formaldehyde in PBS on ice for 15 minutes. Cells were pelleted and resuspended in PBS with 5% bovine serum albumin (BSA). Cells were analyzed with a Becton-Dickinson FACSymphony™ flow cytometer with at least 3 replicates; 3×10^4 cells were analyzed with each replicate for statistical significance.
(§6) Statistical analyses were performed with GraphPad Prism software (version 10.4.1). Effective concentrations that inhibited 50% of cells (EC50, log agonist versus response) were estimated with nonlinear fit curves. Absorbance values for cytotoxity assays and relative densities for Western blot assays were compared using Kruskal-Wallis analyses of variance with Dunn's correction for multiple comparisons. For flow cytometric analyses, two-way analyses of variance with Tukey's correction for multiple comparisons were used.

[10] = tested on: THP-1 cells; assay: Cytotoxicity assay (Ghost Dye 710 flow cytometry); assay type: cell-based; details: Homo sapiens, 48 hours
Method: as §5, §6

half-life ([6]; human liver microsomes, read-out: Liver Microsomal Stability (t1/2) Human): 31.1 min
half-life ([6]; mouse liver microsomes, read-out: Liver Microsomal Stability (t1/2) Mouse): 17.3 min
SMILES: COC(=O)c1c(NC(=O)c2ccccc2C)sc(C(=O)Nc2cccc(C)c2)c1C [Compound 2, methyl 4-methyl-2-[(2-methylbenzoyl)amino]-5-[[(3-methylphenyl)amino]carbonyl]-3-thiophenecarboxylate]
apoptosis (cell surface annexin V expression) [1]: did not induce apoptosis
apoptosis (cell surface annexin V expression) [2]: increased cell surface annexin V expression
apoptosis (cell surface annexin V expression) [3]: decreased cell surface annexin V
radiosensitization [4]: did not demonstrate radiosensitization
radiosensitization [5]: demonstrated LCMT-li radiosensitization
RIPK1 phosphorylation at serine 161 [7]: increased RIPK1 phosphorylation at serine 161
cytosolic PP2Ab expression [7]: did not change cytosolic expression PP2Ab
phosphorylation of AMPK [7]: Increased phosphorylation of AMPK was not found
phosphorylation of MLKL [7]: not in MDA-MB-231 cells
PP2Ac methylation ([7]; Compound 2 significant at 4 hours): decreased PP2Ac methylation
RIPK1 phosphorylation at serine 161 [8]: did not statistically increase
phosphorylation of ACC1 [8]: increased phosphorylation of ACC1
phosphorylation of AMPK [8]: Increased phosphorylation of AMPK was not found
phosphorylation of MLKL [8]: Increased phosphorylation of MLKL was noted
cytosolic PP2Ab expression ([8]; after 4-6 hours of exposure): decreased cytosolic PP2Ab expression
PP2Ac methylation ([8]; lysates after 2, 4, 6, 8 and 12 hours): did not significantly decrease methylation of PP2Ac
EC50 [9]: 224 µM
EC50 [10]: 10.4 µM
